From PMC6017322, “Triterpene Acids from Frankincense and Semi-Synthetic Derivatives That Inhibit 5-Lipoxygenase and Cathepsin G” (Molecules : A Journal of Synthetic Chemistry and Natural …, 2018) come the findings set out here.

For experiment [1], the target named is T1, 5-LO (Homo sapiens, UniProt P09917).
T1 sequence (P09917 1-674): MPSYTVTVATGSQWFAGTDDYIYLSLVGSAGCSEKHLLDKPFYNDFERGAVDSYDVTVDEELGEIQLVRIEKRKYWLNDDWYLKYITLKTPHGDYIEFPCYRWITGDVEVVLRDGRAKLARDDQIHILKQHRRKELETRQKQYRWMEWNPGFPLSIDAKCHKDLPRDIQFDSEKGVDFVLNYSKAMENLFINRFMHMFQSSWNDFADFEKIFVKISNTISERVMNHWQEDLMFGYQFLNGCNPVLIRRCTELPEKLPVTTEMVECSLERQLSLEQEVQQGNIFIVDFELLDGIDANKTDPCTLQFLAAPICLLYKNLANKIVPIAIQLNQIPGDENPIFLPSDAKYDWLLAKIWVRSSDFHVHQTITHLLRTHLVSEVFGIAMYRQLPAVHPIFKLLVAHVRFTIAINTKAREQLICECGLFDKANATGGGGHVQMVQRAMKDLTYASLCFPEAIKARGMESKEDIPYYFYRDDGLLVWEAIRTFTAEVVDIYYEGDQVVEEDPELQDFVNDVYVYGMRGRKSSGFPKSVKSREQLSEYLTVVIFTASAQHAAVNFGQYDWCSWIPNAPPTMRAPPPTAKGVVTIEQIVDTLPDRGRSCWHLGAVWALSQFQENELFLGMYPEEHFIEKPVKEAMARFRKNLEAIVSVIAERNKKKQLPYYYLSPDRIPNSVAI
Nature of the experiment: 5-LO activity in a cell-free assay (isolated human recombinant 5-LO, 20 µM arachidonic acid). Type of experiment: biochemical. More on the design: made in house; host or cells: Escherichia coli BL21 (pT3-5-LO plasmid). The following applies: residual activity at 10 µM, isolated 5-LO, 20 µM arachidonic acid, mean ± SEM, 3–4 experiments. The method, then: Human recombinant 5-LO was expressed in Eschericha coli BL21 transformed with pT3-5-LO plasmid at 30 °C overnight, as described elsewhere. Cells were lysed in lysis buffer containing triethanolamine (50 mM, pH 8.0), EDTA (5 mM), phenylmethanesulfonyl fluoride (1 mM), soybean trypsin inhibitor (60 µg/mL), dithiothreitol (2 mM), and lysozyme (1 mg/mL), and homogenized by sonification (3 × 15 s). 5-LO was then purified from 40,000× g supernatant (20 min, 4 °C) using an ATP-agarose column (Sigma-Aldrich, Deisenhofen, Germany), diluted with PBS buffer containing 1 mM EDTA, and immediately used for 5-LO activity assays.
To determine 5-LO activity, aliquots of purified 5-LO (0.5 µg 5-LO in 1 mL PBS plus 1 mM EDTA) were pre-incubated with the test compounds or vehicle (0.1% dimethyl sulfoxide, DMSO) on ice for 15 min, pre-warmed for 30 s at 37 °C in a water bath, and then stimulated with 20 µM AA and CaCl2 2 mM for 10 min at 37 °C. The reaction was stopped with one volume of ice-cold methanol and 5-LO products (including all-trans-isomers of LTB4 and 5-hydroperoxyeicosatetraenoic acid (5-HpETE), as well as its corresponding alcohol 5-hydroxyeicosatetraenoic acid (5-HETE)) were analyzed by reversed phase (RP)-HPLC (Elite LaChrom, VWR, Radnor, PA, USA) as previously described. In brief, acidified PBS and 200 ng of internal PGB1 standard were added and solid phase extraction using C18 RP-columns (100 mg, UCT, Bristol, PA, USA) was performed. After elution with methanol, samples were analyzed by RP-HPLC using a C-18 Radial-PAK column (Waters, Eschborn, Germany).

A further experiment addresses T2, cathepsin G (Homo sapiens, UniProt P08311).
T2 construct: purified cathepsin G (0.2 µg) from human neutrophils; purchased Calbiochem; host or cells: human neutrophils (natural source)
T2 sequence (P08311 21-244 limits assumed): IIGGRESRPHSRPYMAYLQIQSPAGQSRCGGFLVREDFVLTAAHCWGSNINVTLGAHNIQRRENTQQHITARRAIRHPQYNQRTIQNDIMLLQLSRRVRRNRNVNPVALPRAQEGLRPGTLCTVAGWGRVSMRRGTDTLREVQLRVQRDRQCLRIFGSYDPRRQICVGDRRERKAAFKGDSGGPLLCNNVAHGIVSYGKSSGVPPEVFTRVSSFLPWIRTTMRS
Nature of the experiment: Cathepsin G activity in a cell-free assay (Suc-AAPF-pNA substrate). Type of experiment: biochemical. The following applies: for IC50: purified cathepsin G from human neutrophils, read-out: Cat. G IC50 (converted); for remaining activity at 10 µM: read-out: Cat. G Activity [% Control]. The method, then: Commercially available purified cathepsin G (0.2 µg) from human neutrophils (Calbiochem, La Jolla, CA, USA) was mixed with test compounds or DMSO (vehicle control) in 200 µL 0.1 M HEPES pH 7.4, 0.5 M NaCl, and 10% DMSO in a 96-well plate (Greiner Bio-One, Frickenhausen, Germany) and pre-incubated for 20 min at 25 °C. Then, N-Suc–Ala–Ala–Pro–Phe–pNA (Suc–AAPF–pNA) (1 mM) as substrate for cathespin G was added, and the absorbance was measured at 410 nm at 25 °C using a Victor^2 plate reader (PerkinElmer, Waltham, MA, USA).

The target of experiment [2] is T1, 5-LO. The experiment in a line: 5-LO product formation in intact human neutrophils stimulated with A23187 (cell-based). Also on record: 5-LO product formation in intact human neutrophils; endogenous in cells; host or cells: freshly isolated human peripheral blood neutrophils. The following applies: human neutrophils; for remaining activity at 10 µM: read-out: 5-LO Activity [% Control] cell-based. The method, then: Neutrophils were isolated from peripheral blood (University Hospital Tübingen, Germany), collected from fasted healthy adult donors that were informed about the aim of the study and gave written consent. Leukocyte concentrates were obtained by centrifugation (4000× g, 20 min, 20 °C) of heparinized blood preparation, and neutrophils were immediately isolated as described before. Briefly, leukocyte concentrates were subjected to dextran sedimentation and centrifuged on lymphocyte separation medium (LSM 1077, PAA, Coelbe, Germany). For isolation of pelleted neutrophils, remaining erythrocytes were removed by hypotonic lysis, washed twice with ice-cold phosphate-buffered saline (PBS) and finally resuspended in PBS buffer containing 0.1% glucose and CaCl2 (1 mM) (PGC buffer).
5-LO product formation in intact human neutrophils was performed using 5 × 10^6 freshly isolated cells that were resuspended in 1 mL PGC buffer. Cells were pre-incubated with the test compounds or vehicle (0.1% DMSO) at 37 °C for 15 min prior to stimulation with 2.5 µM Ca^2+-ionophore A23187 for 10 min (37 °C). 5-LO product formation was stopped by addition of one volume of ice-cold methanol, samples were subjected to solid phase extraction after addition of 200 ng PGB1 as internal standard, and 5-LO products (LTB4, its trans-isomers and 5-HETE) were analyzed by RP-HPLC as described above.

Setting [3] is: residual activity at 10 µM, cell-free, mean ± SEM, 3–4 experiments.
Setting [4] is: residual activity at 10 µM, A23187, mean ± SEM, 3–4 experiments.

For the compound `C[C@H]1[C@H](C)CC[C@]2(C)CC[C@]3(C)C(=CC(=O)[C@@H]4[C@@]5(C)CC[C@@H](OC(=O)CCCC(=O)O)[C@](C)(C(=O)O)[C@@H]5CC[C@]43C)[C@H]12` [compound 25, 3-O-Glutaroyl-11-keto-β-boswellic acid], the “5-LO Activity [% Control] cell-free” value on 5-LO [1] is “n.i”. Besides, the IC50 at cathepsin G (cell-free) was 8.6 µM. The remaining activity at 10 µM at cathepsin G (setting [3]) came out at 49.1 ± 11%. Further, at 5-LO [2] (setting [4]), the “5-LO Activity [% Control] cell-based” value was “n.i”.
Turning to `C[C@H]1[C@H](C)CC[C@]2(C)CC[C@]3(C)C(=CC[C@@H]4[C@@]5(C)CC[C@@H](OCC(=O)O)[C@](C)(C(=O)O)[C@@H]5CC[C@]43C)[C@H]12` [compound 26, 3-O-Carboxymethyl-β-boswellic acid], the remaining activity at 10 µM on 5-LO [1] (read-out: 5-LO Activity [% Control] cell-free) amounted to 78.1 ± 7.4%; on cathepsin G (setting [3]), 28.8 ± 7.4%; at 5-LO [2] (setting [4]) it was 57.6 ± 5.3%. The IC50 on cathepsin G (cell-free) was 3.4 µM. Moreover, the inhibition at 10 µM on 5-LO [2] (at 10 µM, read-out: inhibition of 5-LO activity in intact cells) was 42%.
As for `C[C@H]1[C@H](C)CC[C@]2(C)CC[C@]3(C)C(=CC(=O)[C@@H]4[C@@]5(C)CC[C@@H](OCC(=O)O)[C@](C)(C(=O)O)[C@@H]5CC[C@]43C)[C@H]12` [compound 27, 3-O-Carboxymethyl-11-keto-β-boswellic acid], the “5-LO Activity [% Control] cell-free” value on 5-LO [1] was “n.i”. The “inhibition of cathepsin G” value on cathepsin G (at 10 µM) was “not active”. Also, the “Cat. G Activity [% Control]” value on cathepsin G (setting [3]) is recorded as “n.i”. The remaining activity at 10 µM on 5-LO [2] (setting [4]) worked out at 68.4 ± 2.1%.

What is called IC50 is the concentration needed to halve the response being measured. What is called inhibition is the drop in the measured response relative to a control, in per cent.
